This passage reports IC50 and EC50 results from US9522888B2, “Substituted bicyclic compounds” (BRISTOL-MYERS SQUIBB COMPANY, priority 2014, dated 2016).

The target in assay [1] is human S1P1 (Homo sapiens (Human), UniProt P21453). The assay is described as follows: S1P1 binding assay (33P-S1P radioligand competition, CHO cell membranes). As to conditions: phosphate examples; read-out: S1P1 Binding. The procedure, abridged:
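Radioligand is 33P-S1P, competing for membranes from human S1P1-expressing CHO cells. Membranes resuspended in 50 mM HEPES pH 7.5, 100 mM NaCl, 1 mM MgCl2, 2 mM EDTA.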
On the technique in general: Loss of bound radioactivity is the signal in a displacement assay; it reports binding, not function.

In assay [2] the target is S1P1 (membranes prepared from S1P1/CHO cells) (Homo sapiens (Human), UniProt P21453). As to the kind of experiment: Receptor [35S] GTPγS binding assay (S1P1 GTPγS). The conditions noted are these: phosphate examples; read-out: S1P1 GTPγS. In kind it is biochemical. The procedure, abridged:
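Agonist-stimulated [35S]GTPγS binding (0.2 nM final) to S1P1/CHO membranes, 3 μg protein/well, measured after 45 min at room temperature. Buffer contained 10 μM GDP, saponin and fatty-acid-free BSA at pH 7.5. Compounds tested as 11-point 3-fold series; bound label captured on filters, scintillation-counted, EC50 reported.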
In general terms: Binding of GTPγS marks nucleotide exchange on a G protein.

Assay [3] has as its target hS1P1/CHO cells (Homo sapiens (Human), UniProt P21453). The assay is described as follows: hS1P1 ERK phosphorylation (S1P1 pERK). In kind it is cell-based. The conditions noted are these: phosphate examples. The procedure, abridged:
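Agonism read as ERK phosphorylation (SureFire pERK) in hS1P1/CHO lysates, normalised to the maximal effect of 10 μM S1P. Cells were held 2 h in serum-free medium, then treated with compound for 7 min at 37° C. in HBSS/20 mM HEPES.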

For assay [4], the target named is S1P3 (membranes prepared from EDG3-Gal5-bla HEK293T cells) (Homo sapiens (Human), UniProt Q99500). The assay is described as follows: Receptor [35S] GTPγS binding assay (S1P3 GTPγS). Format: biochemical. The conditions noted are these: phosphate examples; read-out: S1P3 GTPγS. The procedure, abridged: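 Membranes (3 μg protein/well) from S1P1/CHO cells or EDG3-Gal5-bla HEK293T cells (S1P3) were incubated 45 min at room temperature with 0.2 nM final [35S]GTPγS in HEPES pH 7.5 buffer with 10 μM GDP, MgCl2 and saponin. Bound label counted after filtration; EC50 from 11-point, 3-fold dilutions.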
S1P3 (membranes prepared from EDG3-Gal5-bla HEK293T cells), sequence (Q99500 whole entry): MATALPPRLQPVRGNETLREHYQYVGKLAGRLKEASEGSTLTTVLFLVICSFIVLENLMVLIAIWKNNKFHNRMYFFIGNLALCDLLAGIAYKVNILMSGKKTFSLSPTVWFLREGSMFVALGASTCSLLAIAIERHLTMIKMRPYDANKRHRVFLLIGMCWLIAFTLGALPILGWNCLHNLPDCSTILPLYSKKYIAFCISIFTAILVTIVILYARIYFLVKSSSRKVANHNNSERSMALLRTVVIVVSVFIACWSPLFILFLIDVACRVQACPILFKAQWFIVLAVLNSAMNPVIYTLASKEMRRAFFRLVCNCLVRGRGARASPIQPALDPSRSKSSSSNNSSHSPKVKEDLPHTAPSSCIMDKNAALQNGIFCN

A value given as a limit tells only on which side of the number the result lay.

hS1P1/CHO cells, sequence (P21453 whole entry): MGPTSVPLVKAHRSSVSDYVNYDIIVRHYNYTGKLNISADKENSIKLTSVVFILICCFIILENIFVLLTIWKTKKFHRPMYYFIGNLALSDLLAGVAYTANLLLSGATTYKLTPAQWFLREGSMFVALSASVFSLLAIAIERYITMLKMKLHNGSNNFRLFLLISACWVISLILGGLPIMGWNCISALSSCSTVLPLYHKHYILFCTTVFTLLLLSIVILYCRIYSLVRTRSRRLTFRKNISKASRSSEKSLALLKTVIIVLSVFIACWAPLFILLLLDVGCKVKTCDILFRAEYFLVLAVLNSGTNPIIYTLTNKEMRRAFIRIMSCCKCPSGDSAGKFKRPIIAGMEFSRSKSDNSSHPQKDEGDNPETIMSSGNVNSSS
human S1P1, sequence (P21453 whole entry): as above
S1P1 (membranes prepared from S1P1/CHO cells), sequence (P21453 whole entry): as above

Regarding `N[C@]1(COP(=O)(O)O)CC[C@H](c2ccc3c(c2)CC[C@@H](CSc2cccnc2)C3)C1` [compound 516], the IC50 in assay [1] lay in the range of 10 to 100 nM. Further, the EC50 in assay [2] is 10 to 100 nM; in assay [3], less than 10 nM; in assay [4], greater than 625 nM.

As to `N[C@]1(COP(=O)(O)O)CC[C@H](c2ccc3c(c2)CC[C@@H](CSc2ccncc2)C3)C1` [compound 517], in assay [1], the IC50 is 10 to 100 nM. Besides, the EC50 in assay [2] was 10 to 100 nM; in assay [3], less than 10 nM; in assay [4] it was greater than 625 nM.

Consider `CC(C)(C)CCSC[C@H]1CCc2cc([C@H]3CC[C@](N)(COP(=O)(O)O)C3)ccc2C1` [compound 518], for which the IC50 in assay [1] is less than 10 nM. Besides, the values for the EC50 in assay [2], in assay [3] and in assay [4] were less than 10 nM, less than 10 nM and greater than 625 nM, respectively.

On to `CC(C)(C)CCSC[C@@H]1CCc2cc([C@H]3CC[C@](N)(COP(=O)(O)O)C3)ccc2C1` [compound 519], for which the IC50 in assay [1] is less than 10 nM. The EC50 in assay [2] is less than 10 nM; in assay [3], less than 10 nM; in assay [4], greater than 625 nM.

Take `Cc1ccccc1SC[C@@H]1CCc2cc([C@H]3CC[C@](N)(COP(=O)(O)O)C3)ccc2C1` [compound 520]: the IC50 in assay [1] lay in the range of 10 to 100 nM. For the same compound, the EC50 is 10 to 100 nM in assay [2], 10 to 100 nM in assay [3] and greater than 625 nM in assay [4].

With `N[C@]1(COP(=O)(O)O)CC[C@H](c2ccc3c(c2)CC[C@H](CSCCc2ccccc2)C3)C1` [compound 521], in assay [1], the IC50 is less than 10 nM. Moreover, the EC50 was less than 10 nM in assay [2], 10 to 100 nM in assay [3] and greater than 50 nM in assay [4].

For the compound `N[C@]1(COP(=O)(O)O)CC[C@H](c2ccc3c(c2)CC[C@@H](CSCCc2ccccc2)C3)C1` [compound 522], in assay [1], the IC50 is less than 10 nM. Further, the results for the EC50 in assay [2], in assay [3] and in assay [4] were 10 to 100 nM, 10 to 100 nM and greater than 625 nM, respectively.

Regarding `Cc1cccc(C)c1SC[C@@H]1CCc2cc([C@H]3CC[C@](N)(COP(=O)(O)O)C3)ccc2C1` [compound 523], the IC50 in assay [1] was 10 to 100 nM. Besides, the EC50 was 100 to 1000 nM in assay [2], 10 to 100 nM in assay [3] and greater than 625 nM in assay [4].

Turning to `N[C@]1(COP(=O)(O)O)CC[C@H](c2ccc3c(c2)CC[C@@H](CSCCc2ccccn2)C3)C1` [compound 524], the IC50 in assay [1] lay in the range of 10 to 100 nM. Besides, the EC50 is less than 10 nM in assay [2], less than 10 nM in assay [3] and greater than 625 nM in assay [4].

As for `N[C@]1(COP(=O)(O)O)CC[C@H](c2ccc3c(c2)CC[C@@H](CSCCc2ccncc2)C3)C1` [compound 525], the IC50 in assay [1] is less than 10 nM. Also, the EC50 is 10 to 100 nM in assay [2], less than 10 nM in assay [3] and greater than 625 nM in assay [4].

For the compound `N[C@]1(COP(=O)(O)O)CC[C@H](c2ccc3c(c2)CC[C@H](CSCCc2cnccn2)C3)C1` [compound 526], the IC50 in assay [1] lay in the range of 10 to 100 nM. The EC50 is 10 to 100 nM in assay [2], less than 10 nM in assay [3] and greater than 625 nM in assay [4].

For the compound `COc1ccccc1SC[C@@H]1CCc2cc([C@H]3CC[C@](N)(COP(=O)(O)O)C3)ccc2C1` [compound 527], the IC50 in assay [1] was less than 10 nM. In addition, the EC50 was less than 10 nM in assay [2], less than 10 nM in assay [3] and greater than 625 nM in assay [4].

With `COc1cccc(SC[C@@H]2CCc3cc([C@H]4CC[C@](N)(COP(=O)(O)O)C4)ccc3C2)c1` [compound 528], in assay [1], the IC50 lay in the range of 10 to 100 nM. In addition, the results for the EC50 in assay [2], in assay [3] and in assay [4] were 100 to 1000 nM, 10 to 100 nM and greater than 625 nM, respectively.

`COc1ccc(SC[C@@H]2CCc3cc([C@H]4CC[C@](N)(COP(=O)(O)O)C4)ccc3C2)cc1` [compound 529]: in assay [1], the IC50 is less than 10 nM. The EC50 in assay [2] is 10 to 100 nM; in assay [3] it was less than 10 nM; in assay [4], greater than 625 nM.

For `CC(C)c1ccccc1SC[C@@H]1CCc2cc([C@H]3CC[C@](N)(COP(=O)(O)O)C3)ccc2C1` [compound 530], the IC50 in assay [1] was 10 to 100 nM. Besides, the EC50 in assay [2] is less than 10 nM; in assay [3], 10 to 100 nM; in assay [4], greater than 625 nM.

For the compound `COc1ccc(SC[C@@H]2CCc3cc([C@H]4CC[C@](N)(COP(=O)(O)O)C4)ccc3C2)cc1OC` [compound 531], the IC50 in assay [1] lay in the range of 10 to 100 nM. In addition, the EC50 in assay [2] was 10 to 100 nM; in assay [3], 10 to 100 nM; in assay [4], greater than 625 nM.

With `CCCSC[C@H]1CCc2cc([C@H]3CC[C@](N)(COP(=O)(O)O)C3)ccc2C1` [compound 532], the IC50 in assay [1] is less than 10 nM. Further, the results for the EC50 in assay [2], in assay [3] and in assay [4] were less than 10 nM, less than 10 nM and greater than 625 nM, respectively.

As to `CCSCC[C@@H]1CCc2cc([C@H]3CC[C@](N)(COP(=O)(O)O)C3)ccc2C1` [compound 533], the IC50 in assay [1] is less than 10 nM. Further, the EC50 is less than 10 nM in assay [2], less than 10 nM in assay [3] and greater than 625 nM in assay [4].

Turning to `CCCSCC[C@H]1CCc2cc([C@H]3CC[C@](N)(COP(=O)(O)O)C3)ccc2C1` [compound 534], the IC50 in assay [1] was less than 10 nM. For the same compound, the EC50 in assay [2] was less than 10 nM; in assay [3], 10 to 100 nM; in assay [4] it was greater than 625 nM.

`CCCSCC[C@@H]1CCc2cc([C@H]3CC[C@](N)(COP(=O)(O)O)C3)ccc2C1` [compound 535]: in assay [1], the IC50 is less than 10 nM. In addition, the EC50 in assay [2] is less than 10 nM; in assay [3], less than 10 nM; in assay [4] it was greater than 625 nM.

`CC(C)SCC[C@H]1CCc2cc([C@H]3CC[C@](N)(COP(=O)(O)O)C3)ccc2C1` [compound 536]: the IC50 in assay [1] was less than 10 nM. In addition, the EC50 was 10 to 100 nM in assay [2], less than 10 nM in assay [3] and greater than 625 nM in assay [4].

`CC(C)SCC[C@@H]1CCc2cc([C@H]3CC[C@](N)(COP(=O)(O)O)C3)ccc2C1` [compound 537]: the IC50 in assay [1] is less than 10 nM. The EC50 in assay [2] is less than 10 nM; in assay [3], less than 10 nM; in assay [4], greater than 625 nM.

In the case of `CC(C)CSCC[C@@H]1CCc2cc([C@H]3CC[C@](N)(COP(=O)(O)O)C3)ccc2C1` [compound 538], the IC50 in assay [1] was less than 10 nM. The figures for the EC50 in assay [2], in assay [3] and in assay [4] were less than 10 nM, less than 10 nM and greater than 625 nM, respectively.

With `CC(C)CSCC[C@H]1CCc2cc([C@H]3CC[C@](N)(COP(=O)(O)O)C3)ccc2C1` [compound 539], in assay [1], the IC50 is less than 10 nM. Moreover, the EC50 in assay [2] was less than 10 nM; in assay [3], less than 10 nM; in assay [4], greater than 625 nM.

Take `COCC[C@@H]1CCc2cc([C@H]3CC[C@](N)(COP(=O)(O)O)C3)ccc2C1` [compound 540]: the IC50 in assay [1] is less than 10 nM. Moreover, the EC50 in assay [2] is 100 to 1000 nM; in assay [3], less than 10 nM; in assay [4] it was greater than 625 nM.

`CCOCC[C@@H]1CCc2cc([C@H]3CC[C@](N)(COP(=O)(O)O)C3)ccc2C1` [compound 541]: the IC50 in assay [1] was less than 10 nM. The EC50 in assay [2] was 10 to 100 nM; in assay [3] it was less than 10 nM; in assay [4] it was greater than 625 nM.

Take `COc1cccc(OCC[C@@H]2CCc3cc([C@H]4CC[C@](N)(COP(=O)(O)O)C4)ccc3C2)c1` [compound 544]: the IC50 in assay [1] lay within 10 to 100 nM. Besides, the EC50 in assay [2] was 100 to 1000 nM; in assay [3], less than 10 nM; in assay [4] it was greater than 625 nM.

As for `COc1cccc(OCC[C@H]2CCc3cc([C@H]4CC[C@](N)(COP(=O)(O)O)C4)ccc3C2)c1` [compound 545], in assay [1], the IC50 is 10 to 100 nM. The EC50 was 10 to 100 nM in assay [2], less than 10 nM in assay [3] and greater than 625 nM in assay [4].

In the case of `COc1ccc(C[C@@H]2CCc3cc([C@H]4CC[C@](N)(COP(=O)(O)O)C4)ccc3C2)c(C)c1` [compound 546], the IC50 in assay [1] lay in the range of 100 to 1000 nM. Moreover, the EC50 in assay [2] was 100 to 1000 nM; in assay [3] it was 10 to 100 nM; in assay [4], greater than 625 nM.

`CCOc1ccc(C[C@H]2CCc3cc([C@H]4CC[C@](N)(COP(=O)(O)O)C4)ccc3C2)cc1` [compound 547]: the IC50 in assay [1] was less than 10 nM. Further, the EC50 is 10 to 100 nM in assay [2], 10 to 100 nM in assay [3] and greater than 625 nM in assay [4].

Regarding `CCOc1cccc(C[C@H]2CCc3cc([C@H]4CC[C@](N)(COP(=O)(O)O)C4)ccc3C2)c1` [compound 548], the IC50 in assay [1] was 10 to 100 nM. The EC50 in assay [2] is 10 to 100 nM; in assay [3], less than 10 nM; in assay [4], greater than 625 nM.

For `CCOc1ccc(C[C@@H]2CCc3cc([C@H]4CC[C@](N)(COP(=O)(O)O)C4)ccc3C2)cc1` [compound 549], in assay [1], the IC50 was 100 to 1000 nM. Moreover, the EC50 in assay [2] is 100 to 1000 nM; in assay [3] it was less than 10 nM; in assay [4] it was greater than 625 nM.

For the compound `COCc1ccc(C[C@@H]2CCc3cc([C@H]4CC[C@](N)(COP(=O)(O)O)C4)ccc3C2)cc1` [compound 550], the IC50 in assay [1] lay in the range of 10 to 100 nM. Moreover, the EC50 in assay [2] was 10 to 100 nM; in assay [3], less than 10 nM; in assay [4], greater than 625 nM.
